Experimental data taken from patent publication US6784201B2, “Benzothiepines having activity as inhibitors of ileal bile acid transport and taurocholate uptake” (G.D. Searle & Company, priority 1994, dated 2004).
Counter-ions that a name gives are not always drawn.

Biological target: T1, human IBAT (Homo sapiens, UniProt Q12908)
T1 construct: expressed in transfected cells; host or cells: Baby hamster kidney (BHK) cells, clone H14
T1 sequence (Q12908 1-348): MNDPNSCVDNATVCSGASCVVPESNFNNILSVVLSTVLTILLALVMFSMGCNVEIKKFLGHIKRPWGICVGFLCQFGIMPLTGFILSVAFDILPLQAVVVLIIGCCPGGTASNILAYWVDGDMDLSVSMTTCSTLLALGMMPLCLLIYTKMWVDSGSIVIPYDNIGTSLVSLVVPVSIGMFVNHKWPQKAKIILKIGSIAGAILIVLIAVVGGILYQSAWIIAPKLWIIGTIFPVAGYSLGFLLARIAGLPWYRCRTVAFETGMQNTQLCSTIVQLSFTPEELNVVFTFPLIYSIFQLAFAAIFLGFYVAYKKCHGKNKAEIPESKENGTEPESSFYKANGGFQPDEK
Assay: In vitro assay of IBAT-mediated uptake of [14C]-taurocholate (TC) in H14 cells
Format: cell-based
Details: 6 μM
Protocol: In Vitro Assay of Compounds that Inhibit IBAT-Mediated Uptake of [^14C]-Taurocholate (TC) in H14 Cells
Baby hamster kidney cells (BHK) transfected with the cDNA of human IBAT (H14 cells) are seeded at 60,000 cells/well in 96 well Top-Count tissue culture plates for assays run within in 24 hours of seeding, 30,000 cells/well for assays run within 48 hours, and 10,000 cells/well for assays run within 72 hours.
On the day of assay, the cell monolayer is gently washed once with 100 μl assay buffer (Dulbecco's Modified Eagle's medium with 4.5 g/L glucose+0.2% (w/v) fatty acid free bovine serum albumin-(FAF)BSA). To each well 50 μl of a two-fold concentrate of test compound in assay buffer is added along with 50 μl of 6 μM [^14C]-taurocholate in assay buffer (final concentration of 3 μM [^14C]-taurocholate). The cell culture plates are incubated 2 hours at 37° C. prior to gently washing each well twice with 100 μl 4° C. Dulbecco's phosphate-buffered saline (PBS) containing 0.2% (w/v) (FAF)BSA. The wells are then gently washed once with 100 μl 4° C. PBS without (FAF)BSA. To each 200 μl of liquid scintillation counting fluid is added, the plates are heat sealed and shaken for 30 minutes at room temperature prior to measuring the amount of radioactivity in each well on a Packard Top-Count instrument.

Row | SMILES | inhibition at 6 µM [%]
1 | CCCC[C@]1(CC)CS(=O)(=O)c2ccc(N)cc2[C@@H](c2ccccc2)[C@H]1O [Example 64, (3α,4β,5β) 3-Butyl-3-ethyl-4-hydroxy-7-amino-5-phenyl-2,3,4,5-tetrahydrobenzothiepine-1,1-dioxide] | 100

Same assay, conditions: 100 uM; read-out: In vitro % Inhibition of TC Uptake @ 100 uM

Row | SMILES | inhibition at 100 µM [%]
2 | CCCC[C@]1(CC)CS(=O)(=O)c2ccccc2[C@H]2O[C@H]21 [Example 19b] | 15
3 | CCCCC1(CC)C=C(c2ccccc2)c2ccccc2SC1 (centres unmarked) [Example 3, 3-Butyl-3-ethyl-5-phenyl-2,3-dihydrobenzothiepine] | 0

Same assay, conditions: In Vitro Taurocholate Uptake, Table 10; read-out: Human TC IC50

Row | SMILES | IC50 [nM]
4 | CCCCC1(CCCC)CS(=O)(=O)c2ccc(N(C)C)cc2[C@@H](c2ccc(OCCCC[N+]34CCN(CC3)CC4)cc2)[C@H]1O [Example 1409, (4R-cis)-1-[4-[4-[3,3-Dibutyl-7-(dimethylamino)-2,3,4,5-tetrahydro-4-hydroxy-1,1-dioxido-1-benzothiepin-5-yl]phenoxy]butyl]-4-aza-1-azoniabicyclo[2.2.2]octane-4-methylbenzenesulfonate (Salt)] | 0.9
5 | CCCCC1(CCCC)CS(=O)(=O)c2ccc(N(C)C)cc2[C@@H](c2ccc(OCCCCC[n+]3cccc4ccccc43)cc2)[C@H]1O [Example 1412, (4R-cis)-1-[5-[4-[3,3-Dibutyl-7-(dimethylamino)-2,3,4,5-tetrahydro-4-hydroxy-1,1-dioxido-1-benzothiepin-5-yl]phenoxy]pentyl]quinolinium, methanesulfonate (Salt)] | 3

Same assay, conditions: read-out: Human TC IC50

Row | SMILES | IC50 [nM]
6 | CCCCC1(CCCC)CS(=O)(=O)c2ccc(N(C)C)cc2C(c2ccc(CO)cc2)C1O (centres unmarked) [Example 1283] | 170
7 | CCCCC1(CCCC)CS(=O)(=O)c2ccc(N(C)C)cc2C(c2cccc(N)c2)C1O (centres unmarked) [Example 1046] | 3
8 | CCCCC1(CCCC)CS(=O)(=O)c2ccc(OC)cc2C(c2ccncc2)C1O (centres unmarked) [Example 1172] | 140
9 | CCCCC1(CCCC)CS(=O)(=O)c2ccc(N(C)C)cc2C(c2cccc(OCCOCCOCC[n+]3ccc4c(c3)CCCCC4)c2)C1O (centres unmarked) [Example 1056] | 3
10 | CCCCC1(CCCC)CS(=O)(=O)c2c(NC(C)(C)C)cccc2C(c2ccc(F)cc2)C1O (centres unmarked) [Example 1258] | 120
11 | CCCCC1(CCCC)CS(=O)(=O)c2ccc(N(C)C)cc2C(c2cccc(OCCOCCOCC[N+](CC)(CC)CCO)c2)C1O (centres unmarked) [Example 1022] | 2
12 | CCCCC1(CCCC)CS(=O)(=O)c2ccc(N(C)C)cc2C(c2cccnc2)C1O (centres unmarked) [Example 1108] | 7.5
13 | CCCCC1(CC)CS(=O)(=O)c2ccc(N(C)C)cc2C(c2ccc(O)cc2)C1O (single isomer, unassigned) [Example 1078] | 4.5
14 | CCCCC1(CCCC)CS(=O)(=O)c2ccc(N(C)C)cc2C(c2ccc3cc(O)ccc3c2)C1O (centres unmarked) [Example 1247] | 17
15 | CCCCC1(CC)CS(=O)(=O)c2ccc(-c3ccccc3)cc2C(c2cccc(OC)c2)C1O (centres unmarked) [Example 1174] | 150
16 | CCCCC1(CCCC)CS(=O)(=O)c2c(NCC)cccc2C(c2ccc(F)cc2)C1O (centres unmarked) [Example 1284] | 11
17 | CCCCC1(CCCC)CS(=O)(=O)c2ccc(N(C)C)cc2C(c2cccc(OCCOCCOCC[N+](C)(C)CCN(CC)C(=O)c3ccccc3)c2)C1O (centres unmarked) [Example 1086] | 5
18 | CCCCC1(CCCC)CS(=O)(=O)c2ccc(N(C)C)cc2C(c2ccccc2)C1O (centres unmarked) [Example 294] | 13
19 | CCCCC1(CCCC)CS(=O)(=O)c2ccc(N(C)C)cc2C(c2ccc(OCC[N+](C)(C)C)cc2)C1O (centres unmarked) [Example 1303] | 260
20 | CCCCC1(CCCC)CS(=O)(=O)c2ccc(N(C)C)cc2C(c2cccc(OCCOCCOCC[n+]3ccc(C4CC=CCC4)cc3)c2)C1O (centres unmarked) [Example 1121] | 10
21 | CCCCC1(CCCC)CS(=O)(=O)c2ccc(N(C)C)cc2C(c2ccc(OCc3cccc[n+]3C)c(F)c2)C1O (centres unmarked) [Example 1291] | 13
22 | CCCCC1(CCCC)CS(=O)(=O)c2ccc(N(C)C)cc2C(c2cccc(OCCOCCOCC[n+]3ccncc3)c2)C1O (centres unmarked) [Example 1057] | 3
23 | CCCCC1(CCCC)CS(=O)(=O)c2ccc(N(C)C)cc2C(c2ccc(OCCCCCCI)cc2)C1O (centres unmarked) [Example 1281] | 55
24 | CCCCC1(CCCC)CS(=O)(=O)c2ccc(N(C)C)cc2C(c2ccc(OCCCCCCCCCCI)cc2)C1O (centres unmarked) [Example 1269] | 26
25 | CCCCC1(CCCC)CS(=O)(=O)c2ccc(N(C)C)cc2C(c2cccc(OCCOCCOCC[N+](CC)(CC)CCNC(=O)c3ccccc3)c2)C1O (centres unmarked) [Example 1374] | 7
26 | CCCCC1(CC)CS(=O)(=O)c2ccc(N(C)C)cc2C(c2ccc(O)c(F)c2)C1O (centres unmarked) [Example 1118] | 10
27 | CCCCC1(CCCC)CS(=O)(=O)c2ccc(N(C)C)cc2C(c2ccc(CBr)cc2)C1O (centres unmarked) [Example 1236] | 50
28 | CCCCC1(CC)CS(=O)(=O)c2ccc(N)cc2C(c2ccc(F)cc2)C1O (single isomer, unassigned) [Example 127] | 550
29 | CCCCC1(CCCC)CS(=O)(=O)c2ccc(N(C)C)cc2C(c2cccc(CN(C)C)c2)C1O (centres unmarked) [Example 1241] | 47

Row | SMILES | IC50 [nM]
30 | CCCCC1(CCCC)CS(=O)(=O)c2ccc(F)cc2C(c2ccc(F)cc2)C1O (centres unmarked) [Example 1185] | 280
31 | CCCCC1(CCCC)CS(=O)(=O)c2ccc([N+](C)(C)C)cc2C(c2ccc(O)cc2)C1O (centres unmarked) [Example 1168] | 120
32 | CCCCC1(CC)CS(=O)(=O)c2ccc(N(C)C)cc2C(c2cccc(OCCOCCOCCI)c2)C1O (centres unmarked) [Example 1126] | 13
33 | CCCCC1(CCCC)CS(=O)(=O)c2ccc(N(C)C)cc2C(c2ccc(OCCOCCOCCI)cc2)C1O (centres unmarked) [Example 1205] | 34
34 | CCCCC1(CCCC)CS(=O)(=O)c2ccc(N(C)COCC)cc2C(c2ccccc2)C1O (centres unmarked) [Example 1152] | 36
35 | CCCC[C@]1(CC)CS(=O)(=O)c2ccc([N+](C)(C)C)cc2[C@@H](c2ccccc2)[C@H]1O [Example 102] | 83
36 | CCCCC1(CCCC)CS(=O)(=O)c2ccc(N(C)C)cc2C(c2cccc(OCCOCCOCC[N+](CCCCCCC(C)C)(CCCCCCC(C)C)CCCCCCC(C)C)c2)C1O (centres unmarked) [Example 1276] | 29
37 | CCCCC1(CCCC)CS(=O)(=O)c2ccc(NC)cc2C(c2cccc(OCCOCCOCC[N+](C)(C)CCN(C)S(=O)(=O)c3ccccc3)c2)C1O (centres unmarked) [Example 1062] | 4
38 | CCCCC1(CCCC)CS(=O)(=O)c2ccc(N(C)C)cc2C(c2cccc(OCCOCCOCC[N+]34CCN(CC3)CC4)c2)C1O (centres unmarked) [Example 1095] | 6
39 | CCCCC1(CCCC)CS(=O)(=O)c2c(F)cccc2C(c2ccc(F)cc2)C1O (centres unmarked) [Example 1176] | 180
40 | CCCCC1(CC)CS(=O)(=O)c2ccc(N(C)C=O)cc2C(c2ccccc2)C1O (centres unmarked) [Example 1214] | 750
41 | CCCCC1(CCCC)CS(=O)(=O)c2ccc(N(C)C)cc2C(c2cccc(OCCOCCOCC[N+](CC)(CC)CCNS(=O)(=O)c3ccccc3)c2)C1O (centres unmarked) [Example 1365] | 8
42 | CCCCC1(CCCC)CS(=O)(=O)c2ccc(N(C)C)cc2C(c2ccc(OC)c(C[N+](C)(C)C)c2)C1O (centres unmarked) [Example 1253] | 300
43 | CCCCC1(CCCC)CS(=O)(=O)c2ccc(N(C)C)cc2C(c2ccc(OCCCCBr)c(F)c2)C1O (centres unmarked) [Example 1270] | 26
44 | CCCCC1(CCCC)CS(=O)(=O)c2ccc(N(C)C)cc2C(c2cccc(N(C)C)c2)C1O (centres unmarked) [Example 1250] | 13
45 | CCCCC1(CC)CS(=O)(=O)c2ccc(N)cc2C(c2ccc(F)cc2)C1O (single isomer, unassigned) [Example 129] | 35
46 | CCCCC1(CCCC)CS(=O)(=O)c2ccc(N(C)C)cc2C(c2cccc(OCCOCCOCC[n+]3ccccc3)c2)C1O (centres unmarked) [Example 1355] | 1.5
47 | CCCCC1(CCCC)CS(=O)(=O)c2ccc(N(C)C)cc2C(c2ccc(OCCOCC[N+](CC)(CC)CCN(CC)CC)c(F)c2)C1O (centres unmarked) [Example 1122] | 11
48 | CCCCC1(CCCC)CS(=O)(=O)c2ccc(N(C)C)cc2C(c2ccc(OCCOCCSCCN(CC)CC)c(F)c2)C1O (centres unmarked) [Example 1142] | 24
49 | CCCCC1(CCCC)CS(=O)(=O)c2ccc(N(C)C)cc2C(c2cccc3ccccc23)C1O (centres unmarked) [Example 1251] | 620
50 | CCCCC1(CCCC)CS(=O)(=O)c2ccc(OC)cc2C(c2ccc([N+](C)(C)C)cc2)C1O (centres unmarked) [Example 1202] | 40000
51 | CCCC[C@]1(CC)CS(=O)(=O)c2cc(O)ccc2[C@@H](c2ccccc2)[C@H]1O [Example 136] | 90
52 | CCCCC1(CCCC)CS(=O)(=O)c2ccc(N(C)C)cc2C(c2cccc(OCCOCCOCC[N+](C)(C)CCN(C)C(=O)c3ccccc3)c2)C1O (centres unmarked) [Example 1018] | 2
53 | CCCCC1(CCCC)CS(=O)(=O)c2ccc(N(C)C)cc2C(c2ccc(O)c(CN(C)C)c2)C1O (centres unmarked) [Example 1248] | 330
